{
  "source": "patent US20140357512A1",
  "about": "“HISTONE DEACETYLASE (HDAC) BIOMARKERS IN MULTIPLE MYELOMA” (priority 2013, published 2014)",
  "system": "human myeloma cell line MM.1S",
  "assay": "SILAC acetylated-lysine peptide profiling, HDAC inhibitor vs DMSO (light/heavy ratio)",
  "type": "cell-based",
  "from_the_text": "An embodiment of the invention comprises utilizing the SILAC method in order to quantitate changes in protein expression between two or more populations of cells. The SILAC method is a technique based on mass spectrometry that detects differences in protein abundance among samples using non-radioactive isotopic labeling. The SILAC method is known in the art, and described in detail in Ong et al., “Stable Isotope Labeling by Amino Acids in Cell Culture, SILAC, as a Simple and Accurate Approach to Expression Proteomics”, Molecular & Cellular Proteomics, vol. 1, pp. 376-386 (2002), which is incorporated herein by reference in its entirety.\nBriefly, the SILAC method involves growing two populations of cells in cell culture. The first population of cells is grown in growth media containing normal amino acids (“normal media”). The second population of cells is grown in media lacking a standard essential amino acid (such as lysine), but is then supplemented with a non-radioactive, isotopically labeled form of that essential amino acid (such as lysine labeled with ^13C atoms, rather than normal ^12C atoms), which is called “heavy media”. When the two populations of cells are each growing in the medium, they incorporate the amino acids into all of their proteins. The growth of cells maintained in the heavy media is no different from that in normal media. All peptides containing the heavy amino acids are heavier than their normal counterparts. The cells from each of the two populations of cells are lysed. The lysates from each of the two cell populations are then combined. The combined cell lysates are then analyzed by mass spectrometry. Pairs of chemically identical peptides of different stable isotope composition can be differentiated in a mass spectrometer due to their difference in mass. The ratio of peak intensities in the mass spectrum for such peptide pairs reflects the abundance ratio for the two proteins.\nThis example describes SILAC studies that were performed to compare the effects of three different HDAC inhibitors (Compound A, Compound B, and tubastatin A) to a control on a human multiple myeloma cell line. The HDAC inhibitors were also compared amongst themselves to determine differences in their effects.\nA human myeloma cell line MM.1S was grown using either ^12C (light) or ^13C (heavy) lysine containing culture medium. The “heavy” cells were treated with DMSO as the control, and the “light” cells were treated with a single HDAC inhibitor at 37° C. for 6 hours. The heavy and light cells were lysed, and the lysates were mixed in 1:1 ratio and digested with the protease trypsin. The acetylated lysine containing peptides (due to the action of the HDAC inhibitor) in the digested peptide pool were captured by a non-specific anti-acetylated lysine antibody cocktail (the antibodies identify both light and heavy acetylated peptides), and subjected to mass spectrometry analysis in order to identify thousands of individual peptides.\nThousands of peptides were identified in pairs (^12C and ^13C) due to their known mass differences. The amino acid sequence and quantitative ratio (Light/Heavy) of a given peptide in two differentially treated cell lysates were then determined and annotated with their possible protein (gene) sources.\nAs stated above, three HDAC inhibitors (Compound A, Compound B, and Tubastatin A) were used. Thus, the SILAC method was performed three times, with a different HDAC inhibitor compared to a control each time. Accordingly, there are three pairs of quantitative data in the table below, i.e., Compound A:DMSO, Compound B:DMSO, and Tubastatin A:DMSO. A cut-off of 1.30 fold of change (increase or decrease) was then used to determine “changed” or “+” in the table, and any peptides with a fold of change less than 1.3 fold were determined to be “unchanged” or “0” in the table. Those peptides that were not identified were marked as “NA” in the table. […]",
  "data": [
    {"compound": "CN1CCc2c(c3ccccc3n2Cc2ccc(C(=O)NO)cc2)C1", "note": "[Tub A]", "values": [
      {"measurement": "light to heavy ratio (L/H ratio) of acetylated peptide, log 2 scale", "setting": "NIDPK(ac)PCTPR (SEQ ID NO: 148), Isoform 1 of DAZ-associated protein 1 [83], DAZAP1", "value": 0.80},
      {"measurement": "L/H ratio of acetylated peptide", "setting": "NK(ac)WFFQK (SEQ ID NO: 498), 60S ribosomal protein L27 [128], RPL27", "value": 0.00, "unit": "log 2"},
      {"measurement": "light to heavy ratio (L/H ratio) of acetylated peptide, log 2 scale", "setting": "NKEEAAEYAK(ac)LLAK (SEQ ID NO: 214), 40S ribosomal protein S6 [211], RPS6", "value": 0.53},
      {"measurement": "light to heavy ratio (L/H ratio) of acetylated peptide, log 2 scale", "setting": "NLDK(ac)EYLPIGGLAEFCK (SEQ ID NO: 159), Aspartate aminotransferase mitochondrial [94], GOT2", "value": "−0.46"},
      {"measurement": "L/H ratio of acetylated peptide ADKDYHFK(ac)VDNDENEHQLSLR (SEQ ID NO: 61)", "setting": "NPM1 [32], log 2 scale, drug vs DMSO", "value": "−0.64"},
      {"measurement": "L/H ratio of acetylated peptide FINYVK(ac)NCFR (SEQ ID NO: 62)", "setting": "NPM1 [244], log 2 scale, drug vs DMSO", "value": "−0.52"},
      {"measurement": "light to heavy ratio (L/H ratio) of acetylated peptide, log 2 scale", "setting": "NTILK(ac)AYDGR (SEQ ID NO: 177), Isocitrate dehydrogenase [NADP] mitochondrial [256], IDH2", "value": "−0.49"},
      {"measurement": "L/H ratio of acetylated peptide GVTQFGNK(ac)YIQQTKPLTLER (SEQ ID NO: 18)", "setting": "NUDT21 [23], log 2 scale, drug vs DMSO", "value": 0.50},
      {"measurement": "light to heavy ratio (L/H ratio) of acetylated peptide, log 2 scale", "setting": "NVESYTK(ac)LGNPTR (SEQ ID NO: 210), Dolichyl-diphosphooligosaccharide--protein glycosyltransferase subunit 1 precursor [226], RPN1", "value": "−0.88"},
      {"measurement": "light to heavy ratio (L/H ratio) of acetylated peptide, log 2 scale", "setting": "NVTLPAVFK(ac)APIRPDIVNFVHTNLR (SEQ ID NO: 205), 60S ribosomal protein L4 [29], RPL4", "value": "−0.48"},
      {"measurement": "L/H ratio of acetylated peptide", "setting": "NVYK(ac)FELDTSER (SEQ ID NO: 444), Dolichyl-diphosphooligosaccharide--protein glycosyltransferase subunit 2 [460], RPN2", "value": 0.00, "unit": "log 2"},
      {"measurement": "light to heavy ratio (L/H ratio) of acetylated peptide, log 2 scale", "setting": "NYEHLFK(ac)VNDK (SEQ ID NO: 192), Mitochondrial import inner membrane translocase subunit TIM16 [82], PAM16", "value": 1.00},
      {"measurement": "light to heavy ratio (L/H ratio) of acetylated peptide FCLSK(ac)PGVYK (SEQ ID NO: 345)", "setting": "Nodal modulator 1 [630], NOMO3, NOMO1, drug:DMSO", "value": 0.00, "unit": "log 2"},
      {"measurement": "L/H ratio of acetylated peptide SGVGNVFIK(ac)NLDK (SEQ ID NO: 63)", "setting": "PABPC4 [104], log 2 scale, drug vs DMSO", "value": "−0.54"},
      {"measurement": "L/H ratio of acetylated peptide YGVSGYPTLK(ac)IFR (SEQ ID NO: 66)", "setting": "PDIA3 [104], log 2 scale, drug vs DMSO", "value": "−0.60"},
      {"measurement": "L/H ratio of acetylated peptide PSHLTNK(ac)FEDK (SEQ ID NO: 65)", "setting": "PDIA3 [214], log 2 scale, drug vs DMSO", "value": "−0.63"},
      {"measurement": "L/H ratio of acetylated peptide GEK(ac)FVMQEEFSR (SEQ ID NO: 64)", "setting": "PDIA3 [335], log 2 scale, drug vs DMSO", "value": "−0.58"},
      {"measurement": "light to heavy ratio (L/H ratio) of acetylated peptide, log 2 scale", "setting": "PGGPALWGDAFK(ac)R (SEQ ID NO: 189), Protein NipSnap homolog 3A [166], NIPSNAP3A", "value": 0.77},
      {"measurement": "L/H ratio of acetylated peptide SLLGK(ac)DVLFLK (SEQ ID NO: 67)", "setting": "PGK1 [91], log 2 scale, drug vs DMSO", "value": 0.38},
      {"measurement": "L/H ratio of acetylated peptide SIYGEK(ac)FEDENFILK (SEQ ID NO: 68)", "setting": "PPIA [82], log 2 scale, drug vs DMSO", "value": "−0.67"},
      {"measurement": "L/H ratio of acetylated peptide VIFGLFGK(ac)TVPK (SEQ ID NO: 70)", "setting": "PPIB [67], log 2 scale, drug vs DMSO", "value": "−0.44"},
      {"measurement": "L/H ratio of acetylated peptide TVPK(ac)TVDNFVALATGEK (SEQ ID NO: 69)", "setting": "PPIB [71], log 2 scale, drug vs DMSO", "value": "−0.49"},
      {"measurement": "L/H ratio of acetylated peptide VIK(ac)[…] (SEQ ID NO: 71)", "setting": "PPIB [98], log 2 scale, drug vs DMSO", "value": "−0.40"},
      {"measurement": "L/H ratio of acetylated peptide IYGFYDECK(ac)R (SEQ ID NO: 72)", "setting": "PPP1CC [141], log 2 scale, drug vs DMSO", "value": "−0.43"},
      {"measurement": "light to heavy ratio (L/H ratio) of acetylated peptide TAWLDGK(ac)HVVFGK (SEQ ID NO: 592)", "setting": "Peptidyl-prolyl cis-trans isomerase B [165], gene PPIB, inhibitor:DMSO", "value": 0.00, "unit": "log 2"},
      {"measurement": "light to heavy ratio (L/H ratio) of acetylated peptide FPDENFK(ac)LK (SEQ ID NO: 347)", "setting": "Peptidyl-prolyl cis-trans isomerase C [123], PPIC, drug:DMSO", "value": 0.00, "unit": "log 2"},
      {"measurement": "light to heavy ratio (L/H ratio) of acetylated peptide (ac)AAK(ac)VFESIGK (SEQ ID NO: 277)", "setting": "Prohibitin [4], PHB, drug:DMSO", "value": 0.39, "unit": "log 2"},
      {"measurement": "light to heavy ratio (L/H ratio) of acetylated peptide FVVEK(ac)AEQQK (SEQ ID NO: 263)", "setting": "Prohibitin [202], PHB, drug:DMSO", "value": 0.62, "unit": "log 2"},
      {"measurement": "light to heavy ratio (L/H ratio) of acetylated peptide GYPTIK(ac)FFR (SEQ ID NO: 541)", "setting": "Protein disulfide-isomerase [103], gene P4HB, inhibitor:DMSO", "value": 0.00, "unit": "log 2"},
      {"measurement": "light to heavy ratio (L/H ratio) of acetylated peptide THILLFLPK(ac)SVSDYDGK (SEQ ID NO: 297)", "setting": "Protein disulfide-isomerase [263], P4HB, drug:DMSO", "value": "−0.45", "unit": "log 2"},
      {"measurement": "light to heavy ratio (L/H ratio) of acetylated peptide SGLLDK(ac)WK (SEQ ID NO: 602)", "setting": "Signal peptidase complex subunit 2 [38], gene LOC653566, SPCS2, inhibitor:DMSO", "value": 0.00, "unit": "log 2"},
      {"measurement": "light to heavy ratio (L/H ratio) of acetylated peptide (ac)AEYLASIFGTEK(ac)DK (SEQ ID NO: 283)", "setting": "Splicing factor U2AF 35 kDa subunit [13], U2AF1, drug:DMSO", "value": 0.60, "unit": "log 2"},
      {"measurement": "light to heavy ratio (L/H ratio) of acetylated peptide YDDPEVQK(ac)DIK (SEQ ID NO: 578)", "setting": "Stress-70 protein mitochondrial [135], gene HSPA9, inhibitor:DMSO", "value": 0.00, "unit": "log 2"},
      {"measurement": "light to heavy ratio (L/H ratio) of acetylated peptide, log 2 scale", "setting": "TAMK(ac)YNLGLDLR (SEQ ID NO: 158), Glutamate dehydrogenase 1 mitochondrial [527], GLUD1", "value": 0.48},
      {"measurement": "light to heavy ratio (L/H ratio) of acetylated peptide, log 2 scale", "setting": "TLNDELEIIEGMK(ac)FDR (SEQ ID NO: 175), 60 kDa heat shock protein mitochondrial [218], HSPD1", "value": "−0.45"},
      {"measurement": "light to heavy ratio (L/H ratio) of acetylated peptide, log 2 scale", "setting": "TPELNLDQFHDK(ac)TPYTIMFGPDK (SEQ ID NO: 139), cDNA FLJ55574 highly similar to Calnexin [217], CANX", "value": "−0.48"},
      {"measurement": "light to heavy ratio (L/H ratio) of acetylated peptide, log 2 scale", "setting": "TPVIVTLK(ac)ENER (SEQ ID NO: 176), Hypoxia up-regulated protein 1 [75], HYOU1", "value": "−0.54"},
      {"measurement": "L/H ratio of acetylated peptide INVYYNEATGGK(ac)YVPR (SEQ ID NO: 109)", "setting": "TUBB2C [58], log 2 scale, drug vs DMSO", "value": "−0.43"},
      {"measurement": "L/H ratio of acetylated peptide ILAEGGGAK(ac)FK (SEQ ID NO: 110)", "setting": "TUFM [91], log 2 scale, drug vs DMSO", "value": "−0.61"},
      {"measurement": "L/H ratio of acetylated peptide QIESK(ac)TAFQEALDAAGDK (SEQ ID NO: 111)", "setting": "TXN [8], log 2 scale, drug vs DMSO", "value": "−0.70"},
      {"measurement": "L/H ratio of acetylated peptide VYVAK(ac)VDCTAHSDVCSAQGVR (SEQ ID NO: 113)", "setting": "TXNDC5, MUTED, MUTED-TXNDC5 [118], log 2 scale, drug vs DMSO", "value": "−0.49"},
      {"measurement": "L/H ratio of acetylated peptide LFKPGQEAVK(ac)YQGPR (SEQ ID NO: 112)", "setting": "TXNDC5, MUTED, MUTED-TXNDC5 [150], log 2 scale, drug vs DMSO", "value": "−0.47"},
      {"measurement": "light to heavy ratio (L/H ratio) of acetylated peptide, log 2 scale", "setting": "TYGEIFEK(ac)FHPIR (SEQ ID NO: 188), NADH dehydrogenase [ubiquinone] 1 subunit C2 [114], NDUFC2", "value": 1.00},
      {"measurement": "light to heavy ratio (L/H ratio) of acetylated peptide NICSK(ac)YSVR (SEQ ID NO: 256)", "setting": "Thioredoxin domain-containing protein 5 [390], TXNDC5, MUTED, MUTED-TXNDC5, drug:DMSO", "value": "−0.51", "unit": "log 2"}
    ]}
  ]
}
